Assay results as given in PMC9833666, “Designing and identifying β-hairpin peptide macrocycles with antibiotic potential” (Science Advances, 2023).
Read-outs that look alike come from different tables or passages of the source. Bridge positions count the residues as written; N and C are the ends. Peptide text beside a SMILES is read from it.

System: Escherichia coli W3110
Type: cell-based
Conditions: for Ec W3110 MIC MH: E. coli W3110, MH medium; for Ec W3110 MIC RPMI: E. coli W3110, RPMI medium
Protocol: MICs were performed by a modifiedClinical and Laboratory Standards Institute) procedure. […] Separately, E. coli W3110 or A. baumannii AB5075 was grown overnight in 5 ml of standard MH at 37°C. Cells from these cultures were diluted to a concentration of 5 × 10^5 to 6 × 10^5 cells/ml in either standard MH, MHII, RPMI, or fetal bovine serum, and 90 μl was added to each well of the 96-well plate containing diluted peptide. Plates were wrapped twice in parafilm and incubated at 37°C for 18 to 24 hours. Wells were examined by eye against wells with no bacteria for signs of growth. MICs were reported as the minimum concentration with no observable growth. In cases where triplicate samples differed, the concentration supported by the median of the three replicates was reported.

Row | SMILES | Ec W3110 MIC MH [µg/mL] | Ec W3110 MIC RPMI [µg/mL] | W3110 MIC MH (W3110) [µg/mL] | W3110 MIC RPMI (W3110) [µg/mL] | W3110 MIC (W3110) [µg/mL] | W3110 MIC MH (E. coli W3110, standard Mueller-Hinton broth, 37°C, 18-24 h, median of n=3) [µg/mL]
1 | CC[C@H](C)[C@@H]1NC(=O)[C@H](CCCNC(=N)N)NC(=O)[C@H](CC(C)C)NC(=O)CNC(=O)[C@H](CCCNC(=N)N)NC(=O)[C@H](CCCNC(=N)N)NC(=O)[C@H](CCCNC(=N)N)NC(=O)[C@H](CC(N)=O)NC(=O)[C@H](CC(N)=O)NC(=O)[C@H](CC(C)C)NC(=O)[C@H](CCCNC(=N)N)NC(=O)[C@H]([C@@H](C)CC)NC(=O)[C@H](CCCNC(=N)N)NC(=O)[C@H](CC(C)C)NC(=O)[C@@H](N)CSSC[C@@H](C(=O)O)NC(=O)[C@H](C(C)C)NC(=O)[C@H](CCC(N)=O)NC(=O)[C@H](CC(C)C)NC(=O)[C@H](CO)NC1=O [SySA-72] (H-CLRIRLNNRRRGLRISLQVC-OH; disulfide 1-20; N-terminus and C-terminus assumed) | 32 | 8 | 32 | 8 |  | 
2 | CC[C@H](C)[C@@H]1NC(=O)[C@H](CCCNC(=N)N)NC(=O)[C@@H](N)CSSC[C@@H](C(=O)O)NC(=O)[C@H](CCC(N)=O)NC(=O)[C@H](C(C)C)NC(=O)[C@H](CCC(=O)O)NC(=O)[C@H](CC(C)C)NC(=O)[C@H](CCCNC(=N)N)NC(=O)[C@H](CC(C)C)NC(=O)[C@H](CCCNC(=N)N)NC(=O)[C@H](CCCNC(=N)N)NC(=O)CNC(=O)[C@H](CCCNC(=N)N)NC(=O)[C@H](CC(N)=O)NC(=O)[C@H](CC(N)=O)NC(=O)[C@H](C(C)C)NC(=O)[C@H](CC(N)=O)NC(=O)[C@H](C(C)C)NC(=O)[C@H](CCCCN)NC1=O [SySA-4] (H-CRIKVNVNNRGRRLRLEVQC-OH; disulfide 1-20; N-terminus and C-terminus assumed) | 256 | 128 |  | 128 |  | 
3 | CC[C@H](C)[C@@H]1NC(=O)[C@H](CC(N)=O)NC(=O)[C@H]([C@@H](C)CC)NC(=O)[C@H](CCCNC(=N)N)NC(=O)[C@H](C(C)C)NC(=O)[C@H](CCCNC(=N)N)NC(=O)[C@@H](N)CSSC[C@@H](C(=O)O)NC(=O)[C@H](CCC(N)=O)NC(=O)[C@H](CC(C)C)NC(=O)[C@H](CCC(N)=O)NC(=O)[C@H](CC(C)C)NC(=O)[C@H](CCCCN)NC(=O)[C@H](C(C)C)NC(=O)[C@H](CCCNC(=N)N)NC(=O)[C@H](CCCNC(=N)N)NC(=O)[C@H](CCCNC(=N)N)NC(=O)CNC(=O)[C@H](CC(N)=O)NC(=O)[C@H](CC(N)=O)NC1=O [SySA-7] (H-CRVRININNGRRRVKLQLQC-OH; disulfide 1-20; N-terminus and C-terminus assumed) | 256 | 32 | 256 | 32 |  | 
4 | CC(C)C[C@@H]1NC(=O)[C@H](CCCNC(=N)N)NC(=O)[C@H](CCCNC(=N)N)NC(=O)[C@H](CCCNC(=N)N)NC(=O)CNC(=O)[C@H](CC(N)=O)NC(=O)[C@H](CC(N)=O)NC(=O)[C@H](CC(C)C)NC(=O)[C@H](CCCNC(=N)N)NC(=O)[C@H](C(C)C)NC(=O)[C@H](CCCNC(=N)N)NC(=O)[C@H](CC(C)C)NC(=O)[C@@H](N)CSSC[C@@H](C(=O)O)NC(=O)[C@H](C(C)C)NC(=O)[C@H](CCC(N)=O)NC(=O)[C@H](CC(C)C)NC(=O)[C@H](CO)NC(=O)[C@H](C(C)C)NC(=O)[C@H](CCCCN)NC1=O [SySA-71] (H-CLRVRLNNGRRRLKVSLQVC-OH; disulfide 1-20; N-terminus and C-terminus assumed) | 16 | 32 | 16 | 32 |  | 
5 | CC[C@H](C)[C@@H]1NC(=O)[C@H](CCCCN)NC(=O)[C@H](CC(C)C)NC(=O)CNC(=O)[C@H](CCCNC(=N)N)NC(=O)[C@H](CCCNC(=N)N)NC(=O)[C@H](CCCNC(=N)N)NC(=O)[C@H](CC(N)=O)NC(=O)[C@H](CC(N)=O)NC(=O)[C@H](CC(C)C)NC(=O)[C@H](CCCNC(=N)N)NC(=O)[C@H](C(C)C)NC(=O)[C@H](CCCNC(=N)N)NC(=O)[C@H](C(C)C)NC(=O)[C@@H](N)CSSC[C@@H](C(=O)O)NC(=O)[C@H](C(C)C)NC(=O)[C@H](CCC(N)=O)NC(=O)[C@H](CC(C)C)NC(=O)[C@H]([C@@H](C)O)NC1=O [SySA-88] (H-CVRVRLNNRRRGLKITLQVC-OH; disulfide 1-20; N-terminus and C-terminus assumed) | 32 | 8 | 32 | 8 |  | 
6 | CC[C@H](C)[C@@H]1NC(=O)[C@H](CCCCN)NC(=O)[C@H]([C@@H](C)CC)NC(=O)[C@H](CCCNC(=N)N)NC(=O)[C@@H](N)CSSC[C@@H](C(=O)O)NC(=O)[C@H](CCC(N)=O)NC(=O)[C@H](C(C)C)NC(=O)[C@H](CCC(N)=O)NC(=O)[C@H](CC(C)C)NC(=O)[C@H](CCCCN)NC(=O)[C@H](CC(C)C)NC(=O)[C@H](CCCNC(=N)N)NC(=O)[C@H](CCCNC(=N)N)NC(=O)[C@H](CO)NC(=O)CNC(=O)[C@H](CC(=O)O)NC(=O)[C@H](CC(N)=O)NC(=O)[C@H](C(C)C)NC(=O)[C@H](CC(N)=O)NC1=O [SySA-8] (H-CRIKINVNDGSRRLKLQVQC-OH; disulfide 1-20; N-terminus and C-terminus assumed) | 256 | 256 | 256 | 256 |  | 
7 | CC[C@H](C)[C@@H]1NC(=O)[C@H](CC(=O)O)NC(=O)[C@H]([C@@H](C)CC)NC(=O)[C@H](CCCNC(=N)N)NC(=O)[C@H](C(C)C)NC(=O)[C@H](CCCNC(=N)N)NC(=O)[C@@H](N)CSSC[C@@H](C(=O)O)NC(=O)[C@H](CCC(N)=O)NC(=O)[C@H](CC(C)C)NC(=O)[C@H](CCC(N)=O)NC(=O)[C@H](CC(C)C)NC(=O)[C@H](CCCCN)NC(=O)[C@H](CC(C)C)NC(=O)[C@H](CCCNC(=N)N)NC(=O)[C@H](CCCNC(=N)N)NC(=O)[C@H](CCCNC(=N)N)NC(=O)CNC(=O)[C@H](CC(N)=O)NC(=O)[C@H](CC(N)=O)NC1=O [SyRC-5] (H-CRVRIDINNGRRRLKLQLQC-OH; disulfide 1-20) |  |  |  |  | >256 | 
8 | CC[C@H](C)[C@@H]1NC(=O)[C@H](CCCNC(=N)N)NC(=O)[C@@H](N)CSSC[C@@H](C(=O)O)NC(=O)[C@H](CCC(N)=O)NC(=O)[C@H](C(C)C)NC(=O)[C@H](CCC(N)=O)NC(=O)[C@H](CC(C)C)NC(=O)[C@H](CCCNC(=N)N)NC(=O)[C@H](C(C)C)NC(=O)[C@H](CCCNC(=N)N)NC(=O)[C@H](CCCNC(=N)N)NC(=O)[C@H](CCCNC(=N)N)NC(=O)[C@H](CCCNC(=N)N)NC(=O)[C@H](CC(N)=O)NC(=O)[C@H](CC(N)=O)NC(=O)[C@H](C(C)C)NC(=O)[C@H](CC(=O)O)NC(=O)[C@H](C(C)C)NC(=O)[C@H](CCCCN)NC1=O [SySA-1] (H-CRIKVDVNNRRRRVRLQVQC-OH; disulfide 1-20; N-terminus and C-terminus assumed) | 128 | 64 |  | 64 |  | 128

Now from value to compound:

Row | Ec W3110 MIC MH [µg/mL] | Ec W3110 MIC RPMI [µg/mL] | W3110 MIC MH (W3110) [µg/mL] | W3110 MIC RPMI (W3110) [µg/mL] | W3110 MIC (W3110) [µg/mL] | W3110 MIC MH (E. coli W3110, standard Mueller-Hinton broth, 37°C, 18-24 h, median of n=3) [µg/mL] | SMILES
9 | 64 | 8 | 64 | 8 |  |  | CC(C)C[C@@H]1NC(=O)[C@H](CCCNC(=N)N)NC(=O)[C@H](C(C)C)NC(=O)[C@H](CCCNC(=N)N)NC(=O)[C@H](CC(C)C)NC(=O)[C@@H](N)CSSC[C@@H](C(=O)O)NC(=O)[C@H](C(C)C)NC(=O)[C@H](CCC(N)=O)NC(=O)[C@H](C(C)C)NC(=O)[C@H](CO)NC(=O)[C@H](C(C)C)NC(=O)[C@H](CCCCN)NC(=O)[C@H](C(C)C)NC(=O)CNC(=O)[C@H](CCCNC(=N)N)NC(=O)[C@H](CCCNC(=N)N)NC(=O)[C@H](CCCNC(=N)N)NC(=O)[C@H](CC(N)=O)NC(=O)[C@H](CC(N)=O)NC1=O [SySA-25] (H-CLRVRLNNRRRGVKVSVQVC-OH; disulfide 1-20; N-terminus and C-terminus assumed)
10 |  |  |  |  | >256 |  | CC[C@H](C)[C@@H]1NC(=O)[C@H](CCCNC(=N)N)NC(=O)[C@H](C(C)C)NC(=O)CNC(=O)[C@H](CO)NC(=O)[C@H](CCCNC(=N)N)NC(=O)CNC(=O)[C@H](CC(N)=O)NC(=O)[C@H](CC(=O)O)NC(=O)[C@H](CC(C)C)NC(=O)[C@H](CCCNC(=N)N)NC(=O)[C@H](C(C)C)NC(=O)[C@H]([C@@H](C)O)NC(=O)[C@H](C(C)C)NC(=O)[C@@H](N)CSSC[C@@H](C(=O)O)NC(=O)[C@H](C(C)C)NC(=O)[C@H](CCC(N)=O)NC(=O)[C@H](C(C)C)NC(=O)[C@H](CO)NC1=O [SyRA-13] (H-CVTVRLDNGRSGVRISVQVC-OH; disulfide 1-20)
11 |  |  |  |  | >256 |  | CC[C@H](C)[C@@H]1NC(=O)[C@H](CCCCN)NC(=O)[C@H](C(C)C)NC(=O)[C@H](CCCNC(=N)N)NC(=O)[C@H](CO)NC(=O)[C@H](CCCNC(=N)N)NC(=O)[C@H](CCCNC(=N)N)NC(=O)[C@H](CC(N)=O)NC(=O)[C@H](CC(=O)O)NC(=O)[C@H](C(C)C)NC(=O)[C@H](CCCNC(=N)N)NC(=O)[C@H]([C@@H](C)CC)NC(=O)[C@H]([C@@H](C)O)NC(=O)[C@H](CC(C)C)NC(=O)[C@@H](N)CSSC[C@@H](C(=O)O)NC(=O)[C@H](C(C)C)NC(=O)[C@H](CCC(=O)O)NC(=O)[C@H](CC(C)C)NC(=O)[C@H]([C@@H](C)O)NC1=O [SyRA-4] (H-CLTIRVDNRRSRVKITLEVC-OH; disulfide 1-20)
12 |  |  |  |  | >256 |  | CC[C@H](C)[C@@H]1NC(=O)[C@H](CCCNC(=N)N)NC(=O)[C@H](CC(C)C)NC(=O)[C@H](CCCNC(=N)N)NC(=O)[C@H](CO)NC(=O)[C@H](CCCNC(=N)N)NC(=O)[C@H](CCCNC(=N)N)NC(=O)[C@H](CC(=O)O)NC(=O)[C@H](CC(N)=O)NC(=O)[C@H](CC(C)C)NC(=O)[C@H](CCCNC(=N)N)NC(=O)[C@H](C(C)C)NC(=O)[C@H]([C@@H](C)O)NC(=O)[C@H](C(C)C)NC(=O)[C@@H](N)CSSC[C@@H](C(=O)O)NC(=O)[C@H](C(C)C)NC(=O)[C@H](CCC(=O)O)NC(=O)[C@H](CC(C)C)NC(=O)[C@H]([C@@H](C)O)NC1=O [SyRA-15] (H-CVTVRLNDRRSRLRITLEVC-OH; disulfide 1-20)
13 |  |  |  |  | >256 |  | CC[C@H](C)[C@@H]1NC(=O)[C@H](CCCNC(=N)N)NC(=O)[C@H](C(C)C)NC(=O)CNC(=O)[C@H](CCCNC(=N)N)NC(=O)CNC(=O)CNC(=O)[C@H](CC(N)=O)NC(=O)[C@H](CC(=O)O)NC(=O)[C@H](CC(C)C)NC(=O)[C@H](CCCNC(=N)N)NC(=O)[C@H]([C@@H](C)CC)NC(=O)[C@H]([C@@H](C)O)NC(=O)[C@H](CC(C)C)NC(=O)[C@@H](N)CSSC[C@@H](C(=O)O)NC(=O)[C@H](C(C)C)NC(=O)[C@H](CCC(N)=O)NC(=O)[C@H](CC(C)C)NC(=O)[C@H](CO)NC1=O [SyRA-5] (H-CLTIRLDNGGRGVRISLQVC-OH; disulfide 1-20)
